Results: patent publication US12441691B2 (Cytokinetics, Inc., priority 2020, dated 2025)

Test system: rabbit skeletal myofibrils (fast skeletal myofibrils)
Test: Activation of fast skeletal myofibrils (PUMA assay, AC1.4)
Format: biochemical
Conditions: calcium at pCa25, AC1.4 = concentration at which the compound increased the enzymatic activity
Procedure: Preparation of fast skeletal myofibrils: Rabbit skeletal myofibrils were prepared based upon the method of Herrmann et al. (Biochem. 32(28):7255-7263(1993). Myofibrils were prepared from rabbit psoas muscle purchased from Pel-Freez Biologicals (Arkansas) within 2 days of ordering, stored on ice. Minced muscle was homogenized in 10 volumes of ice-cold “standard” buffer (50 mM Tris, pH 7.4, 0.1 M KOAc, 5 mM KCl, 2 mM dithiothreitol (DTT), 0.2 mM phenylmethylsulfonyl fluoride (PMSF), 10 μM leupeptin, 5 μM pepstatin, and 0.5 mM sodium azide) containing 5 mM ethylenediaminetetraacetic acid (EDTA) and 0.5% Triton X-100 using an Omni-Macro homogenizer. Myofibrils were recovered by low speed centrifugation (3000 rpm for 10 minutes) and washed 2 times in the Triton X-100 containing buffer to ensure removal of cellular membrane. Following the Triton washes, myofibrils were washed 3 times in “standard” buffer containing 2 mM magnesium acetate. A final wash in assay buffer (12 mM piperazine-1,4-bis(2-ethanesulfonic acid) (PIPES), pH 6.8, 60 mM KCl, 1 mM DTT) was performed and brought to 10% sucrose for flash freezing in liquid nitrogen and storage at −80° C.
Activation of Fast Skeletal Myofibrils: Fast fiber activators were identified by measuring the enzymatic activity of muscle myofibril preparations using the proprietary PUMA (trademark) (see, e.g., U.S. Pat. Nos. 6,410,254, 6,743,599, 7,202,051, and 7,378,254) assay system. Myofibril preparations consisted of rabbit skeletal muscle (approximately 90% fast fibers) that had been mechanically homogenized and washed with a detergent (Triton X-100) to remove cellular membranes. This preparation retained all of the sarcomeric components in a native conformation and the enzymatic activity was still regulated by calcium. Compounds were tested using a myofibril suspension and a level of calcium sufficient to increase enzymatic activity of the myofibrils to 25% of their maximal rate (termed pCa25). Enzymatic activity was tracked via a pyruvate kinase and lactate dehydrogenase-coupled enzyme system. This assay regenerates myosin-produced ADP into ATP by oxidizing NADH, producing an absorbance change at 340 nm. The buffering system was 12 mM PIPES, 2 mM MgCl2, 1 mM DTT at pH 6.8 (PM12 buffer). […] In Table 9, “Example Compound” refers to the compound labeled with the same number in Table 2.

| SMILES | AC1.4 |
| --- | --- |
| CC[C@H](C)[C@H]1C(=O)Nc2cc(F)ccc2CN1C(=O)CCO [Compound 43, (S)-3-((S)-sec-butyl)-8-fluoro-4-(3-hydroxypropanoyl)-1,3,4,5-tetrahydro-2H-benzo[e][1,4]diazepin-2-one] | 0.81 µM |
| CC[C@H](C)[C@H]1C(=O)Nc2c(F)cccc2CN1C(N)=O [Compound 44, (S)-3-((S)-sec-butyl)-9-fluoro-2-oxo-1,2,3,5-tetrahydro-4H-benzo[e][1,4]diazepine-4-carboxamide] | 0.26 µM |
| CC[C@H](C)[C@H]1C(=O)Nc2ccccc2CN1C(=O)c1cn[nH]c1 [Compound 45, (S)-3-((S)-sec-butyl)-4-(1H-pyrazole-4-carbonyl)-1,3,4,5-tetrahydro-2H-benzo[e][1,4]diazepin-2-one] | 0.08 µM |
| CC[C@H](C)[C@H]1C(=O)Nc2ccccc2CN1C(=O)c1cnn(C)c1 [Compound 46, (S)-3-((S)-sec-butyl)-4-(1-methyl-1H-pyrazole-4-carbonyl)-1,3,4,5-tetrahydro-2H-benzo[e][1,4]diazepin-2-one] | 0.13 µM |
| CC[C@H](C)[C@H]1C(=O)Nc2ccccc2CN1C(=O)c1cccc(=O)[nH]1 [Compound 47, (S)-3-((S)-sec-butyl)-4-(6-oxo-1,6-dihydropyridine-2-carbonyl)-1,3,4,5-tetrahydro-2H-benzo[e][1,4]diazepin-2-one] | 0.14 µM |
| CC[C@H](C)[C@H]1C(=O)Nc2ccccc2CN1C(=O)c1cc[nH]c(=O)c1 [Compound 48, (S)-3-((S)-sec-butyl)-4-(2-oxo-1,2-dihydropyridine-4-carbonyl)-1,3,4,5-tetrahydro-2H-benzo[d][1,4]diazepin-2-one] | 0.06 µM |
| CC[C@H](C)[C@H]1C(=O)Nc2ccccc2CN1C(=O)c1cc(O)n[nH]1 [Compound 50, (S)-3-((S)-sec-butyl)-4-(3-hydroxy-1H-pyrazole-5-carbonyl)-1,3,4,5-tetrahydro-2H-benzo[e][1,4]diazepin-2-one] | 0.17 µM |
| CC[C@H](C)[C@H]1C(=O)Nc2ccccc2CN1C(=O)C(C)(C)O [Compound 51, (S)-3-((S)-sec-Butyl)-4-(2-hydroxy-2-methylpropanoyl)-1,3,4,5-tetrahydro-2H-benzo[e][1,4]diazepin-2-one] | 1.23 µM |
| CC[C@H](C)[C@H]1C(=O)Nc2ccccc2CN1c1nc(N)cc(=O)[nH]1 [Compound 52, (S)-4-(4-Amino-6-oxo-1,6-dihydropyrimidin-2-yl)-3-((S)-sec-butyl)-1,3,4,5-tetrahydro-2H-benzo[e][1,4]diazepin-2-one] | 0.03 µM |
| CC[C@H](C)[C@H]1C(=O)Nc2ccccc2CN1c1nc(C)cc(=O)[nH]1 [Compound 53, (S)-3-((S)-sec-Butyl)-4-(4-methyl-6-oxo-1,6-dihydropyrimidin-2-yl)-1,3,4,5-tetrahydro-2H-benzo[e][1,4]diazepin-2-one] | 0.10 µM |
| CC[C@H](C)[C@H]1C(=O)Nc2ccccc2CN1c1cc(=O)[nH]cn1 [Compound 54, (S)-3-((S)-sec-butyl)-4-(6-oxo-1,6-dihydropyrimidin-4-yl)-1,3,4,5-tetrahydro-2H-benzo[e][1,4]diazepin-2-one] | 0.09 µM |
| CC[C@H](C)[C@H]1C(=O)Nc2ccccc2CN1c1noc(C)n1 [Compound 55, (S)-3-((S)-sec-Butyl)-4-(5-methyl-1,2,4-oxadiazol-3-yl)-1,3,4,5-tetrahydro-2H-benzo[e][1,4]diazepin-2-one] | 0.21 µM |
| CC[C@H](C)[C@H]1C(=O)Nc2ccccc2CN1c1ncon1 [Compound 56, (S)-3-((S)-sec-Butyl)-4-(1,2,4-oxadiazol-3-yl)-1,3,4,5-tetrahydro-2H-benzo[e][1,4]diazepin-2-one] | 0.08 µM |
| CC[C@H](C)[C@H]1C(=O)Nc2ccccc2CN1c1c(N)c(=O)c1=O [Compound 57, 3-Amino-4-((S)-3-((S)-sec-butyl)-2-oxo-1,2,3,5-tetrahydro-4H-benzo[e][1,4]diazepin-4-yl)cyclobut-3-ene-1,2-dione] | 0.03 µM |
| CC[C@H](C)[C@H]1C(=O)Nc2ccccc2CN1C(=O)N(C)C [Compound 58, (S)-3-((S)-sec-butyl)-N,N-dimethyl-2-oxo-1,2,3,5-tetrahydro-4H-benzo[e][1,4]diazepine-4-carboxamide] | 0.13 µM |
| CC[C@H](C)[C@H]1C(=O)Nc2ccccc2CN1C(=O)N1CC(OC)C1 [Compound 59, (S)-3-((S)-sec-butyl)-4-(3-methoxyazetidine-1-carbonyl)-1,3,4,5-tetrahydro-2H-benzo[e][1,4]diazepin-2-one] | 0.17 µM |

| SMILES | AC1.4 |
| --- | --- |
| CC[C@H](C)[C@H]1C(=O)Nc2ccccc2CN1c1ncc(N)c(OC)n1 [Compound 60, (S)-4-(5-Amino-4-methoxypyrimidin-2-yl)-3-((S)-sec-butyl)-1,3,4,5-tetrahydro-2H-benzo[e][1,4]diazepin-2-one] | 0.07 µM |
| CC[C@H](C)[C@H]1C(=O)Nc2ccccc2CN1c1ncncn1 [Compound 61, (S)-3-((S)-sec-Butyl)-4-(1,3,5-triazin-2-yl)-1,3,4,5-tetrahydro-2H-benzo[e][1,4]diazepin-2-one] | 0.07 µM |
| CC[C@H](C)[C@H]1C(=O)Nc2ccccc2CN1CCO [Compound 62, (S)-3-((S)-sec-Butyl)-4-(2-hydroxyethyl)-1,3,4,5-tetrahydro-2H-benzo[e][1,4]diazepin-2-one] | 2.25 µM |
| CC[C@H](C)[C@H]1C(=O)Nc2ccccc2C(C)(C)N1C(N)=O [Compound 63, (S)-3-((S)-sec-Butyl)-5,5-dimethyl-2-oxo-1,2,3,5-tetrahydro-4H-benzo[e][1,4]diazepine-4-carboxamide] | 0.10 µM |
| CC[C@H](C)[C@H]1C(=O)Nc2cccc(Cl)c2CN1C(=O)N1CC(O)C1 [Compound 66, (S)-3-((S)-sec-butyl)-6-chloro-4-(3-hydroxyazetidine-1-carbonyl)-1,3,4,5-tetrahydro-2H-benzo[e][1,4]diazepin-2-one] | 3.00 µM |
| CC[C@H](C)[C@H]1C(=O)Nc2cccc(Br)c2CN1C(N)=O [Compound 67, (S)-6-bromo-3-((S)-sec-butyl)-2-oxo-1,2,3,5-tetrahydro-4H-benzo[e][1,4]diazepine-4-carboxamide] | 2.15 µM |
| CC[C@H](C)[C@H]1C(=O)Nc2cccc(C3CC3)c2CN1C(N)=O [Compound 68, (S)-3-((S)-sec-butyl)-6-cyclopropyl-2-oxo-1,2,3,5-tetrahydro-4H-benzo[e][1,4]diazepine-4-carboxamide] | 4.30 µM |
| CC[C@H](C)[C@H]1C(=O)Nc2ccc(F)cc2CN1C(C)=O [Compound 69, (S)-4-acetyl-3-((S)-sec-butyl)-7-fluoro-1,3,4,5-tetrahydro-2H-benzo[e][1,4]diazepin-2-one] | 0.72 µM |
| CC[C@H](C)[C@H]1C(=O)Nc2ccc(F)cc2CN1C(=O)c1ccn[nH]1 [Compound 70, (S)-3-((S)-sec-butyl)-7-fluoro-4-(1H-pyrazole-5-carbonyl)-1,3,4,5-tetrahydro-2H-benzo[e][1,4]diazepin-2-one] | 0.23 µM |
| CC[C@H](C)[C@H]1C(=O)Nc2ccc(F)cc2CN1/C(N)=N\C#N [Compound 71, (S,Z)-3-((S)-sec-butyl)-N′-cyano-7-fluoro-2-oxo-1,2,3,5-tetrahydro-4H-benzo[e][1,4]diazepine-4-carboximidamide] | 0.15 µM |
| CC[C@H](C)[C@H]1C(=O)Nc2ccc(F)cc2CN1C(=O)N1CC(O)C1 [Compound 72, (S)-3-((S)-sec-butyl)-7-fluoro-4-(3-hydroxyazetidine-1-carbonyl)-1,3,4,5-tetrahydro-2H-benzo[e][1,4]diazepin-2-one] | 0.41 µM |
| CC[C@H](C)[C@H]1C(=O)Nc2ccc(Cl)cc2CN1C(N)=O [Compound 73, (S)-3-((S)-sec-butyl)-7-chloro-2-oxo-1,2,3,5-tetrahydro-4H-benzo[e][1,4]diazepine-4-carboxamide] | 0.93 µM |
| CC[C@H](C)[C@H]1C(=O)Nc2ccc(C3CC3)cc2CN1C(N)=O [Compound 74, (S)-3-((S)-sec-butyl)-7-cyclopropyl-2-oxo-1,2,3,5-tetrahydro-4H-benzo[e][1,4]diazepine-4-carboxamide] | 2.39 µM |
| CC[C@H](C)[C@H]1C(=O)Nc2cc(F)ccc2CN1C(N)=O [Compound 75, (S)-3-((S)-sec-butyl)-8-fluoro-2-oxo-1,2,3,5-tetrahydro-4H-benzo[e][1,4]diazepine-4-carboxamide] | 0.13 µM |
| CC[C@H](C)[C@H]1C(=O)Nc2cc(F)ccc2CN1C(=O)N1CC(O)C1 [Compound 76, (S)-3-((S)-sec-butyl)-8-fluoro-4-(3-hydroxyazetidine-1-carbonyl)-1,3,4,5-tetrahydro-2H-benzo[e][1,4]diazepin-2-one] | 0.14 µM |
